Numbers after ± are expanded uncertainties.
What was measured:
[1] = Crystal; DTA
[2] = Molar enthalpy of transition or fusion; conditions: Crystal; DSC

Normal melting temperature [1]: 195.62 ± 0.5 °C | Molar enthalpy of transition or fusion [2]: 50.3 ± 1.4 kJ/mol
SMILES: CCc1ccc(CCOc2ccc(CC3SC(=O)NC3=O)cc2)nc1.Cl (configuration not stated)
